Data from US10058092B2, “Apparatus and method for controlled release of botanical fumigant pesticides” (priority 2012, dated 2018).
Values joined by “and” are separate entries in the source; they are usually repeats but may differ in a detail not shown here. Equal entries are not always repeated.

Tests used:
[1] = Headspace volatilization of secondary metabolites by GCMS; format: physicochemical; settings: share of total peak area
Experimental: In this study, a liquid fumigant pesticide formulation was prepared as follows: • (1) Base formula: rosemary oil (5 ml) • (2) Enhancement formula: rosemary oil high quality (0.5 ml); clove oil (0.05 ml); peppermint oil (0.075 ml) • (3) Carrier solvent: isopropyl alcohol (6 ml); isopropyl myristate (0.06 ml). Blending: • 3. The required amounts of base formula ingredients were drawn from individual stocks of chemicals via a laboratory pipette and were transferred into a 40 ml GC glass vial (2.5 cm diameter by 10 cm length) with a silicon septa. The tall vial was used to minimize surface area of liquid that is exposed to the air during preparation. The chemicals were added quickly (less than 10 second to transfer each chemical) in order to minimize exposure to air. Following the same instruction, the enhancement formula was prepared and added to the same vial. • 4. The carrier solvent was then poured over the base formula and enhancement formula inside the vial. The vial was closed immediately after the solvent was added. The base formula, enhancement formula and carrier solvent were mixed using a lab shaker for 15 seconds.
A sub-sample of the fumigant pesticide composition (0.5 ml) was placed inside a 1 ml GC vial. Three commercial samples of rosemary oil was also placed inside three separate 1 mL GC vials. Headspace volatilization of secondary metabolites from these four samples were compared using a gas chromatograph mass spectrometer (GCMS). The GCMS was programmed to only collect samples from the headspace above the liquid mixture of the chemicals in the vials. […] The GCMS was a Varian 3900 system with a Saturn 2100T ion trap mass-selective detector (Varian Inc., Walnut Creek, Calif.). The inventors used a WCOT fused silica 30 m Å˜0.25 mm i.d. column with a CP-Sil 8 CB low bleed MS coating (Varian Inc.), a 1 μL injection volume and pure helium as the carrier at 1.0 ml min-1. The temperature program used was 80° C. for 0.5 min, an increase of 8.0 $ Cmin-1 for 8.0 min, followed by an increase of 50° C. min-1 for 3.2 min. Cinnamic alcohol (Sigma, St Louis, Mo., USA) was used as an internal standard.

[2] = Volatilization monitoring by ultra-fast gas chromatograph inside empty moving box; format: physicochemical; settings: from fumigant pesticide composition prototype, empty medium size box, 60-150 min and 23 h after closing
Experimental: The volatilization of the prototype of the fumigant pesticide composition was monitored inside empty moving boxes. […] Ten mL of the fumigant pesticide composition prototype was placed inside a 40 mL GC vial.
Volatile monitoring was performed at two steps. Step one started 60 minutes after the box was closed and volatile samples were collected every 5-minutes for 90 minutes. The second step started 23 hours after the box was closed and samples were collected every 5-minutes for 50 minutes.

[3] = Commercial rosemary oil sample one
[4] = Commercial rosemary oil sample three
[5] = Commercial rosemary oil sample two
[6] = Pesticide fumigant formula of the present invention (0.5 ml in 1 ml GC vial)

SMILES | % of secondary metabolite in headspace [1, 3] [%] | % of secondary metabolite in headspace [1, 4] | % of secondary metabolite in headspace [1, 5] [%] | % of secondary metabolite in headspace [1, 6] [%] | pattern of volatilization [2]
CC12CCC(CC1)C(C)(C)O2 [1,8-Cineole] | 57.05 | 36.95% | 21.53 | 46.78 | Unstable pattern with greater fluctuation at the end of trial
CC1=CCC2C(C1)C2(C)C (centres unmarked) [3-Carene] | 1.88 | – | – | – | –
CC1(C)C2CCC1(C)C(O)C2 (centres unmarked) [Borneol] | 4.06 | 1.68% | 3.60 | – | –
CC(=O)OC1CC2CCC1(C)C2(C)C (centres unmarked) [Bornyl Acetate] | 2.70 | 2.54% | – | – | –
C=C1C2CCC(C2)C1(C)C (centres unmarked) [Camphene] | 4.26 | 10.06% and 4.72% | 13.04 | 9.98 | Fluctuation pattern with increasing levels at the tail end
CC12CCC(CC1=O)C2(C)C (centres unmarked) [Camphor] | 11.89 | 18.60% | 25.50 | 23.30 | Fluctuation pattern with increasing levels at the tail end
C=C(C)[C@H]1CC=C(C)CC1 [D-Limonene] | – | – | 4.67 | – | Fluctuation pattern with increasing levels at the tail end
C=CCc1ccc(O)c(OC)c1 [Eugenol] | – | – | – | – | Unstable pattern with greater fluctuation at the end of trial
CC1(C)[C@@H]2CC[C@@]1(C)[C@H](O)C2 [Isoborneol] | 1.74 | – | 2.28 | – | –
CC(=O)OC(C)C [Isopropyl acetate] | – | – | 3.25 | – | –
CC1=CC[C@@H](C(C)(C)O)CC1 [a-Terpineol] | – | 2.48% | – | – | –
CC1=CCC2CC1C2(C)C (centres unmarked) [a-pinene] | 6.53 | 14.73% | 18.15 | 14.58 | Complete inhibition pattern
C=C1CCC2CC1C2(C)C (centres unmarked) [b-pinene] | 8.00 | 6.22% | 5.43 | 5.35 | Complete inhibition pattern
CC(C)=CCC/C(C)=C/CO [geraniol] | – | – | – | – | Steady compounds
C=CC(C)(O)CCC=C(C)C (centres unmarked) [linalool] | – | – | – | – | Steady compounds
Cc1ccc(C(C)C)cc1 [p-Cymene] | 1.89 | 2.01% | 2.56 | – | Fluctuation pattern with increasing levels at the tail end
